# Values quoted from earlier work in patent publication US8475839B2 (Novartis AG, priority 2006, dated 2013).
# Key:
# [1] = not given; remark: listed apart in the source
SMILES,absolute oral bioavailability,"absolute oral bioavailability, wide range (range around the about 25% value)",solubility in water [1]
NS(=O)(=O)c1cc2c(cc1Cl)NCNS2(=O)=O [Hydrochlorothiazide],60-80%,–,–
"CCCCC(=O)N(Cc1ccc(-c2ccccc2-c2nnn[nH]2)cc1)[C@H](C(=O)O)C(C)C [valsartan, (S)-N-valeryl-N-{[2′-(1H-tetrazole-5-yl)-biphenyl-4-yl]-methyl}-valine]",about 25%,10-35%,–
"CCOC(=O)C1=C(COCCN)NC(C)=C(C(=O)OC)C1c1ccccc1Cl (centres unmarked) [Amlodipine besylate, 3-ethyl-5-methyl-2(2-aminoethoxymethyl)-4-(2-chlrorophenyl)-1,4-dihydro-6-methyl-3,5-pyridinedicarboxylate benzenesulphonate]",64-90%,–,slightly soluble
